In publication PMC8662641, “Site-Specific Labeling of Endogenous Proteins Using CoLDR Chemistry” (Journal of the American Chemical Society, 2021):

Test system: Mino cells
Assay: Pull-down proteomics in Mino cells
Assay type: cell-based, human
Protocol: The cells were lysed and “clicked” with biotin-azide, and the samples were incubated at room temperature for 1 h. The samples were then precipitated with methanol–chloroform (1 mL of methanol, 250 μL of chloroform, 750 μL of water), washed with 1 mL of methanol, and air-dried. The samples were solubilized, bound to streptavidin agarose beads in PBS for 3 h at 25 °C. The beads were washed, centrifuged, resuspended in Tris 50 mM pH 8, and transferred to a clean Eppendorf tube. After this, the bound proteins were eluted by boiling with 5% SDS then reduced with DTT, alkylated with iodoacetamide, and digested with trypsin. The samples were run on LC/MS/MS. The detailed procedure is available in the Supplementary Methods Section. […]
Pull-down proteomics experiments
1b or DMSO. The cells were spun down, washed with cold PBS and frozen. Then, each sample was lysed in 200 ul of RIPA for 15 minutes on ice and centrifuged at 20000 g at 4 °C. The protein in the supernatant was quantified using BCA. For each sample, […] of 1.65 mg/ml was prepared.
At this point, 5 ul of 5 mM biotin azide and 9 ul of 100 mM CuSO4:THPTA complex were added.
The click reaction was initiated by the addition of 7.5 ul of 150 mM sodium ascorbate, and the samples are incubated at room temperature for 1 hour. The samples were then precipitated with methanol: chloroform (1 ml methanol, 250 l chloroform, 750 l water), washed with 1 ml of methanol, and air dried. The dry pellet was resuspended in 1.2% SDS in PBS (250 l), sonicated as described before, and heated to 90 °C for 5 minutes. The samples were then diluted to 1.5 ml with PBS, and 50 ul of streptavidin agarose beads, prewashed with 0.2% SDS in PBS, were added, followed by 3 hour incubation at room temperature. Following the incubation, the beads were centrifuged 2 minutes 2000 g, and washed 4 times, with the following buffers (4 ml in each wash):
2% SDS; 0.1% sodium deoxycholate, 1% Triton X-100, 0.5 M NaCl, 1 mM EDTA, 50 mM HEPES pH = 7.5; 0.25 M NaCl, 0.5% IGEPAL, 0.5% sodium deoxycholate, 1 mM EDTA, 10 mM Tris pH = 8.1; 50 mM Tris pH = 7.4, 50 mM NaCl. The beads were then resuspended in Tris 50 mM pH = 8 and transferred to a clean Eppendorf tube.
At this point, the buffer was removed to leave a volume of 100 ul, and 100 ul of Tris 50 mM pH 8 + 10% SDS was added, and the samples were heated to 96 °C for 5 minutes. The samples were then centrifuged and the denatured, eluted proteins were transferred to new tubes. Then, 7.5 ul of 0.1 M DTT was added, and samples were incubated at 65 °C for 45 minutes. After the samples had cooled, 7.5 ul of iodoacetamide (0.2 M) were added, and the samples were incubated in the dark for 40 minutes at room temperature. At this point 1/10 volume of 12% phosphoric acid was added, and the samples were diluted 6-fold with 90% methanol + 50 mM ammonium bicarbonate. The samples were then loaded on s-trap micro columns (Protify) and the columns […]
were washed 3 times with 150 ul of 90% methanol + 50 mM ammonium bicarbonate. Then, 20 ul of 0.05 g/l of trypsin in 50 mM ammonium bicarbonate were added to the columns, and the samples were incubated at 47 °C for 90 minutes. Then 40 ul of 50 mM ammonium bicarbonate was added, followed by centrifugation and addition of 1 ul of 0.5 g/l trypsin to the eluate, which was incubated at 37C overnight. The column itself was then eluted using 40 ul of 0.2% formic acid and 40 ul 0.2% formic acid in 50% acetonitrile into a separate tube, which was kept at 4 °C. The two eluates were then combined and evaporated before running on LC/MS/MS.
Running samples on LC/MS/MS:
ULC/MS grade solvents were used for all chromatographic steps. Each sample was loaded using split-less nano-Ultra Performance Liquid Chromatography (10 kpsi nanoAcquity; Waters, Milford, MA, USA). The mobile phase was: A) H2O + 0.1% formic acid and B) acetonitrile + 0.1% formic acid. Desalting of the samples was performed online using a reversed-phase Symmetry C18 […]

## C#CCCNC(=O)C(=C)CN1CCC[C@@H](n2nc(-c3ccc(Oc4ccccc4)cc3)c3c(N)ncnc32)C1 [1b]
ACACA_HUMAN group, 1b relative to pretreatment by ibrutinib
  Log2(fold enrichment): 0.4315
ACACA_HUMAN group, 1b relative to treatment with DMSO
  Log2(fold enrichment): -0.2749
ACTG_HUMAN group, 1b relative to pretreatment by ibrutinib
  Log2(fold enrichment): 0.2725
ACTG_HUMAN group, 1b relative to treatment with DMSO
  Log2(fold enrichment): 0.2915
ALDOA_HUMAN, 1b relative to pretreatment by ibrutinib
  Log2(fold enrichment): 0.4926
ALDOA_HUMAN, 1b relative to treatment with DMSO
  Log2(fold enrichment): 0.06327
ANXA2_HUMAN group, 1b relative to pretreatment by ibrutinib
  Log2(fold enrichment): -0.9011
ANXA2_HUMAN group, 1b relative to treatment with DMSO
  Log2(fold enrichment): 0.8548
B3GT4_HUMAN, 1b relative to pretreatment by ibrutinib
  Log2(fold enrichment): 0.1405
B3GT4_HUMAN, 1b relative to treatment with DMSO
  Log2(fold enrichment): 2.2518
CAD15_HUMAN, 1b relative to pretreatment by ibrutinib
  Log2(fold enrichment): -2.753
CAD15_HUMAN, 1b relative to treatment with DMSO
  Log2(fold enrichment): -0.7397
CRERF_HUMAN, 1b relative to pretreatment by ibrutinib
  Log2(fold enrichment): -0.1083
CRERF_HUMAN, 1b relative to treatment with DMSO
  Log2(fold enrichment): -0.06839
CX062_HUMAN, 1b relative to pretreatment by ibrutinib
  Log2(fold enrichment): 3.426
CX062_HUMAN, 1b relative to treatment with DMSO
  Log2(fold enrichment): 2.336
CYB5B_HUMAN, 1b relative to pretreatment by ibrutinib
  Log2(fold enrichment): 4.3203
CYB5B_HUMAN, 1b relative to treatment with DMSO
  Log2(fold enrichment): 3.916
CYFP1_HUMAN, 1b relative to pretreatment by ibrutinib
  Log2(fold enrichment): 5.178
CYFP1_HUMAN, 1b relative to treatment with DMSO
  Log2(fold enrichment): 4.841
DCD_HUMAN, 1b relative to pretreatment by ibrutinib
  Log2(fold enrichment): 0.833
DCD_HUMAN, 1b relative to treatment with DMSO
  Log2(fold enrichment): 3.261
DESP_HUMAN, 1b relative to pretreatment by ibrutinib
  Log2(fold enrichment): -0.03598
DESP_HUMAN, 1b relative to treatment with DMSO
  Log2(fold enrichment): 1.065
DSC1_HUMAN, 1b relative to pretreatment by ibrutinib
  Log2(fold enrichment): -0.2037
DSC1_HUMAN, 1b relative to treatment with DMSO
  Log2(fold enrichment): 0.5233
DSG1_HUMAN, 1b relative to pretreatment by ibrutinib
  Log2(fold enrichment): -0.7862
DSG1_HUMAN, 1b relative to treatment with DMSO
  Log2(fold enrichment): 1.658
EF1A3_HUMAN group, 1b relative to pretreatment by ibrutinib
  Log2(fold enrichment): 0.1605
EF1A3_HUMAN group, 1b relative to treatment with DMSO
  Log2(fold enrichment): 0.3209
ELAF_HUMAN, 1b relative to pretreatment by ibrutinib
  Log2(fold enrichment): -0.07576
ELAF_HUMAN, 1b relative to treatment with DMSO
  Log2(fold enrichment): 3.288
ENOA_HUMAN, 1b relative to pretreatment by ibrutinib
  Log2(fold enrichment): 0.1924
ENOA_HUMAN, 1b relative to treatment with DMSO
  Log2(fold enrichment): 0.2037
EP400_HUMAN, 1b relative to pretreatment by ibrutinib
  Log2(fold enrichment): 1.834
EP400_HUMAN, 1b relative to treatment with DMSO
  Log2(fold enrichment): -0.06967
FABP5_HUMAN, 1b relative to pretreatment by ibrutinib
  Log2(fold enrichment): -0.02939
FABP5_HUMAN, 1b relative to treatment with DMSO
  Log2(fold enrichment): 1.253
G3P_HUMAN, 1b relative to pretreatment by ibrutinib
  Log2(fold enrichment): 0.2104
G3P_HUMAN, 1b relative to treatment with DMSO
  Log2(fold enrichment): 0.2112
GRAH_HUMAN, 1b relative to pretreatment by ibrutinib
  Log2(fold enrichment): -0.3838
GRAH_HUMAN, 1b relative to treatment with DMSO
  Log2(fold enrichment): 1.151
GSTP1_HUMAN, 1b relative to pretreatment by ibrutinib
  Log2(fold enrichment): 0.8097
GSTP1_HUMAN, 1b relative to treatment with DMSO
  Log2(fold enrichment): 1.004
HS90B_HUMAN group, 1b relative to pretreatment by ibrutinib
  Log2(fold enrichment): 0.4589
HS90B_HUMAN group, 1b relative to treatment with DMSO
  Log2(fold enrichment): 0.7364
HSP7C_HUMAN, 1b relative to pretreatment by ibrutinib
  Log2(fold enrichment): 0.6921
HSP7C_HUMAN, 1b relative to treatment with DMSO
  Log2(fold enrichment): 0.6391
K2C6B_HUMAN, 1b relative to pretreatment by ibrutinib
  Log2(fold enrichment): -0.8867
K2C6B_HUMAN, 1b relative to treatment with DMSO
  Log2(fold enrichment): 0.6152
KPYM_HUMAN, 1b relative to pretreatment by ibrutinib
  Log2(fold enrichment): 0.1731
KPYM_HUMAN, 1b relative to treatment with DMSO
  Log2(fold enrichment): 1.135
LDHA_HUMAN, 1b relative to pretreatment by ibrutinib
  Log2(fold enrichment): 0.2369
LDHA_HUMAN, 1b relative to treatment with DMSO
  Log2(fold enrichment): -0.2458
LEG9C_HUMAN group, 1b relative to pretreatment by ibrutinib
  Log2(fold enrichment): 1.455
LEG9C_HUMAN group, 1b relative to treatment with DMSO
  Log2(fold enrichment): -0.9819
MCCA_HUMAN, 1b relative to pretreatment by ibrutinib
  Log2(fold enrichment): 0.4599
MCCA_HUMAN, 1b relative to treatment with DMSO
  Log2(fold enrichment): -0.3745
MMRN2_HUMAN, 1b relative to pretreatment by ibrutinib
  Log2(fold enrichment): -0.0371
MMRN2_HUMAN, 1b relative to treatment with DMSO
  Log2(fold enrichment): 0.08276
Mino cells, 100 nM 1b
  off-targets found in pull-down proteomics: BLK, MCAT, and ADK
NEUM_HUMAN, 1b relative to pretreatment by ibrutinib
  Log2(fold enrichment): 2
NEUM_HUMAN, 1b relative to treatment with DMSO
  Log2(fold enrichment): 0.3281
NPM_HUMAN, 1b relative to pretreatment by ibrutinib
  Log2(fold enrichment): 1.109
NPM_HUMAN, 1b relative to treatment with DMSO
  Log2(fold enrichment): 0.4515
PIP_HUMAN, 1b relative to pretreatment by ibrutinib
  Log2(fold enrichment): 0.6558
PIP_HUMAN, 1b relative to treatment with DMSO
  Log2(fold enrichment): -0.01924
PLAK_HUMAN, 1b relative to pretreatment by ibrutinib
  Log2(fold enrichment): 0.152
PLAK_HUMAN, 1b relative to treatment with DMSO
  Log2(fold enrichment): 1.616
PRDX2_HUMAN group, 1b relative to pretreatment by ibrutinib
  Log2(fold enrichment): -0.09254
PRDX2_HUMAN group, 1b relative to treatment with DMSO
  Log2(fold enrichment): -0.2676
REL_HUMAN, 1b relative to pretreatment by ibrutinib
  Log2(fold enrichment): 1.348
REL_HUMAN, 1b relative to treatment with DMSO
  Log2(fold enrichment): -0.2147
RL13_HUMAN, 1b relative to pretreatment by ibrutinib
  Log2(fold enrichment): 0.7491
RL13_HUMAN, 1b relative to treatment with DMSO
  Log2(fold enrichment): 0.2396
RL15_HUMAN, 1b relative to pretreatment by ibrutinib
  Log2(fold enrichment): 0.2388
RL15_HUMAN, 1b relative to treatment with DMSO
  Log2(fold enrichment): 0.9031
RL18_HUMAN, 1b relative to pretreatment by ibrutinib
  Log2(fold enrichment): 0.6086
RL18_HUMAN, 1b relative to treatment with DMSO
  Log2(fold enrichment): -0.373
RL40_HUMAN group, 1b relative to pretreatment by ibrutinib
  Log2(fold enrichment): -1.022
RL40_HUMAN group, 1b relative to treatment with DMSO
  Log2(fold enrichment): 0.218
S10A8_HUMAN, 1b relative to pretreatment by ibrutinib
  Log2(fold enrichment): 0.2414
S10A8_HUMAN, 1b relative to treatment with DMSO
  Log2(fold enrichment): 0.2312
S10A9_HUMAN, 1b relative to pretreatment by ibrutinib
  Log2(fold enrichment): 0.07875
S10A9_HUMAN, 1b relative to treatment with DMSO
  Log2(fold enrichment): 2.006
SYFM_HUMAN, 1b relative to pretreatment by ibrutinib
  Log2(fold enrichment): 0.9276
SYFM_HUMAN, 1b relative to treatment with DMSO
  Log2(fold enrichment): -1.069
TBA1B_HUMAN group, 1b relative to pretreatment by ibrutinib
  Log2(fold enrichment): 0.8267
TBA1B_HUMAN group, 1b relative to treatment with DMSO
  Log2(fold enrichment): 1.164
TBB5_HUMAN group, 1b relative to pretreatment by ibrutinib
  Log2(fold enrichment): 1.023
TBB5_HUMAN group, 1b relative to treatment with DMSO
  Log2(fold enrichment): 0.6602
TGM3_HUMAN, 1b relative to pretreatment by ibrutinib
  Log2(fold enrichment): -0.2702
TGM3_HUMAN, 1b relative to treatment with DMSO
  Log2(fold enrichment): 0.4648
THIO_HUMAN, 1b relative to pretreatment by ibrutinib
  Log2(fold enrichment): 0.6478
THIO_HUMAN, 1b relative to treatment with DMSO
  Log2(fold enrichment): 0.5583
TPIS_HUMAN, 1b relative to pretreatment by ibrutinib
  Log2(fold enrichment): 1.866
TPIS_HUMAN, 1b relative to treatment with DMSO
  Log2(fold enrichment): 2.762
VDAC2_HUMAN, 1b relative to pretreatment by ibrutinib
  Log2(fold enrichment): 0.298
VDAC2_HUMAN, 1b relative to treatment with DMSO
  Log2(fold enrichment): 2.794
ZNT4_HUMAN, 1b relative to pretreatment by ibrutinib
  Log2(fold enrichment): 0.6391
ZNT4_HUMAN, 1b relative to treatment with DMSO
  Log2(fold enrichment): 0.7876
